Measured values: publication PMC9227323, “The Potential of Cell-Penetrating Peptides for mRNA Delivery to Cancer Cells” (Pharmaceutics, 2022)
Where “and” joins values, the source holds several entries; their conditions need not be identical. Identical values can stand only once. Ends that are not written are not given here.

How the values were obtained:
CT26.CL25 cells [1] = test: EGFP expression, flow cytometry; format: cell-based, mouse; conditions: CT26.CL25, EGFP mRNA 6.8 nM, 24 h, right plot of Figure 6B (amphipathic CPPs)
Experimental: (§1) To measure expression efficiency, cells seeded on a 35 mm glass bottom dish were incubated in 1.5 mL of serum-free media for 2 h. After incubation, mCherry mRNA with Lipofectamine 3000 or CPPs were treated for 3 h, washed, and incubated in complete medium for an additional 21 h. The expression of mCherry protein was visualized with a fluorescence microscope (EVOS M7000, ThermoFisher). The expression efficiency was calculated by counting the number of cells expressing fluorescence in the total number of cells. For quantification of expression efficiency, flow cytometry analyses were examined after 24 h treatment with CPP/EGFP mRNA. CT26.CL25 cells were collected with PBS and EGFP-expressing cells were measured by a CytoFLEX flow cytometer (Beckman Coulter) using FlowJo v10 software.

CT26.CL25 cells [2] = test: mCherry protein expression, fluorescence microscopy; format: cell-based, mouse; conditions: CT26.CL25, CPP/mCherry mRNA 6.8 nM, 24 h after treatment, n = 3
Experimental: as §1

[3] = Size and zeta-potential of CPP/mRNA complexes by DLS; format: physicochemical; conditions: for Particle Size / PDI / Zeta Potential: CPP/mRNA complex at the N/P ratio of Table 2; for Particle Size / PDI: DLS; for Particle Size / Zeta Potential: Zetasizer Nano ZS; for Particle Size: 50 μg CPP in 1 mL distilled water; for PDI / Zeta Potential: distilled water; for N/P Ratio (lowest N/P ratio to form the nanocomplexes): CPP/mRNA complex, amine groups of peptide to phosphate groups of mRNA
Experimental: The size and zeta-potential of CPP/mRNA complexes were measured by dynamic light scattering (DLS) using Zetasizer Nano ZS (Malvern Instruments, Malvern, UK); 50 μg of CPPs mixed with an optimized amount of mRNA were diluted in 1 mL of distilled water and then transferred to a cuvette.

CT26.CL25 cells [4] = test: Cellular uptake of fluorescein-labeled mRNA, flow cytometry; format: cell-based, mouse; conditions: CT26.CL25, 3 μg (6.8 nM) fluorescein-labeled mCherry mRNA with CPP or Lipofectamine 3000, serum-free media, 3 h, n = 3
Experimental: For the cellular uptake test, mCherry mRNA was labeled with fluorescein dye using the Label IT nucleic acid labeling kit (MIR 3200) (Mirus Bio, Madison, WI, USA). CT26.CL25 cells plated on a 35 mm glass bottom dish were incubated in 1.5 mL of serum-free media for 2 h. […] After treatment, CT26.CL25 cells were collected with PBS and FITC-positive cells were measured by a CytoFLEX flow cytometer (Beckman Coulter, Palo Alto, CA, USA) using FlowJo v10 software.

mCherry mRNA = test: Gel shift assay, complexation capacity of CPP with mRNA; format: physicochemical; conditions: 350 ng mCherry mRNA, n = 3
Experimental: The mRNA was diluted in RNase-free water at 100 ng/μL and incubated with CPPs (1 μg/μL in RNase-free water) at room temperature (RT) for 1 h at 200 rpm. For in vitro studies, CPP/mRNA complexes were diluted with 1× PBS by adding 10× PBS after complexation. To visualize the complexation of mRNA and CPP, 350 ng of mCherry mRNA was mixed with increasing amounts of CPP and a gel shift assay was performed using a 1% agarose gel. Complexation capacity was measured based on mRNA band intensities by Image J. Complexation capacity (%) = 100 − ((Band intensity of mRNA)/(Band intensity of initial mRNA) × 100))

Row | Substance | EGFP-expressing cells (CT26.CL25 cells [1]) [%] | mCherry-positive cells (CT26.CL25 cells [2]) | Particle Size [3] | PDI [3] | Zeta Potential [3] | N/P Ratio (lowest N/P ratio to form the nanocomplexes) [3] | FITC-positive cells (cellular uptake) (CT26.CL25 cells [4]) | amount of CPP at which complete complexes formed (mCherry mRNA) [nmol]
1 | Stearyl-RRRRRRRR [STR-Arg8, Stearyl-poly-Arginine8, amphipathic CPP, stearyl moiety introduced into Arg8] | 14.6 | 4.9% | 156.8 (±4.7) nm | 0.28 | +28.6 (±0.3) mV | 7.8 | 87.3% and > 85% | 
2 | Penetratin |  | incapable of protein expression |  |  |  |  | 28.7% | 
3 | WEARLARALARALARHLARALARALRACEA [amphipathic cell-penetrating peptide, synthesized by Peptron] | 29.5 | 28.9% | 174.6 (±3.7) nm | 0.23 | +20.2 (±1.7) mV | 9.7 | 99.9% and > 85% | 1.0
4 | VSRRRRRRGGRRRR [LMWP, low molecular weight protamine, cationic cell-penetrating peptide, synthesized by Peptron] |  |  | 129.5 (±0.3) nm | 0.22 | +22.5 (±0.0) mV | 1.9 | 24.1% | 
